# Read-outs that look alike come from different tables or passages of the source.
# Tests used:
# [1] = target: T1, F17aG receptor-binding domain (Escherichia coli, UniProt Q99003); experiment: biochemical; conditions: SPR steady state, 25 °C, pH 7.4
# T1 construct: variants of the lectin domains with oligolysine (4Lys) tails have been constructed; made in house; host or cells: E. coli (periplasm)
# Protocol: The affinity profiles were determined by surface plasmon resonance (SPR) measurements using a BiaCore 3000 instrument (GE Healthcare). […] The proteins were covalently immobilized on CM5 sensor chips (Biacore AB) to an average density of 2000 RU (resonance units in pg/mm^2). On each chip, one flow cell was coated with a camel single domain antibody for use as a reference cell. The other three flow cells (Fc2, Fc3 and Fc4) were coated with three different F17G variants. Carbohydrate concentrations ranging from 10 µM to 10 mM in running buffer (20 mM Hepes, pH 7.4; 150 mM NaCl; 3 mM EDTA and 0.005% surfactant Tween 20) were incubated for one minute on all flow cells simultaneously, at 25 °C and at a flow rate of 30 µL/min. Complete dissociation of the carbohydrates in running buffer was verified before starting a new binding cycle. All binding cycles were performed in duplicate, including a zero concentration cycle (injection of pure running buffer). All analysis was done using the BIAeval software. In each case the equilibrium resonance signal from the reference cell was subtracted from that of the various F17G flow cells (2-1, 3-1, 4-1). A Langmuir binding isotherm with a 1:1 stoichiometry was fitted to the data, from which the equilibrium dissociation constants, Kd, were obtained.
# F17eG lectin domain = experiment: CFG mammalian printed glycan array version 2 (experiment 400), F17eG; type: binding, Escherichia coli; conditions: CFG glycan array version 2; F17G at 200 µg/mL; SEM in parentheses
# Description: (§1) The slide was dried under a stream of nitrogen.
# F17dG lectin domain = F17dG lectin domain (Escherichia coli, UniProt Q47199); conditions: CFG glycan array version 2; F17G at 200 µg/mL; SEM in parentheses
# Protocol: (§2) A microarray presenting 264 different glycans (mammalian printed array version 2) was used to evaluate if the F17G variant lectin domains differ in the range of glycan receptors that they recognize, thereby establishing tropism. The microarray was set up within the Consortium for Functional Glycomics (CFG) ([20], and supplemental data). Binding of F17G (200 µg/mL) was detected using anti-F17G polyclonal rabbit IgG (10 µg/mL), followed by fluorescently labelled goat anti-rabbit polyclonal antibodies (IgG-488, 5 µg/mL).
# (§3) A microarray presenting 264 different glycans (mammalian printed array version 2 from the CFG, experiment 400) was used to evaluate whether the F17G variant lectin domains differ in the range of glycan receptors that they can recognize, thereby establishing strain-dependent tropism. […] The glycan array screening has been repeated for F17aG only on printed array version 4.1 (experiment 2053) (Figure 1).
# (§4) Printed array version 2 at the Consortium for Functional Glycomics was used for glycan array screening of the variant F17G receptor binding domains. Slides were printed, with six replicates for each glycan, using glycan spotting concentrations of 100 μM, at the Consortium Carbohydrate Synthesis/Protein Expression Core D located at the Scripps Research Institute onto Schott Nexterion H slides (Schott Cat. No. 1070936B). Slide conditioning: preprinted slides were soaked in deionized water for 5 minutes at room temperature and dried under a stream of nitrogen. TSM buffer (20 mM Tris-HCl, pH 7.4, or MOPS 20 mM; 150 mM NaCl; 2 mM CaCl2, 2 mM MgCl2) was used as wash buffer (TSM buffer + 0.05% Tween 20) or binding buffer (TSM buffer + 0.05% Tween 20 + 1% BSA). (1) F17G was diluted to 200 μg/mL (Figure 1) in TSM binding buffer. (2) 50 μL of F17G was applied to the printed surface and coverslipped. (3) The slide was incubated, protected from light, in a humidified chamber for 1 hour at RT. (4) The slide was washed once in TSM wash buffer. 50 μL of the anti-F17G (10 μg/mL) polyclonal rabbit IgG were applied, coverslipped and incubated for 1 h at RT. (5) The slide was washed once in TSM wash buffer. Fifty μL of fluorescently labelled secondary goat anti-rabbit polyclonal antibodies (IgG-488, 5 µg/mL) were applied, coverslipped and incubated for 1 h at RT. (6) Slide was removed, followed by the coverslip, and washed for 10 s each in TSM wash buffer, TSM wash buffer lacking Tween 20, and deionized water. The slide was dried under a stream of nitrogen. (7) The binding image was read in a Perkin Elmer Microscanarray XL4000 scanner and tiff file of image stored. (8) Image analysis was performed using Imagene (V.6) image analysis software. (9) Raw data results files were generated in Excel format and uploaded to the Consortium database as .dat files. (10) Imagene data was uploaded to the database as .txt files.
# F17bG lectin domain = F17bG lectin domain (Escherichia coli, UniProt Q47200); conditions: CFG glycan array version 2; F17G at 200 µg/mL; SEM in parentheses
# Protocol: as §2, §3, §4
# F17aG lectin domain = F17aG lectin domain (Escherichia coli, UniProt Q99003); conditions: CFG glycan array version 2; F17G at 200 µg/mL; SEM in parentheses
# Protocol: as §2, §3, §4
# F17fG lectin domain = experiment: CFG mammalian printed glycan array version 2 (experiment 400), F17fG; type: binding, Escherichia coli; conditions: CFG glycan array version 2; F17G at 200 µg/mL; SEM in parentheses
# Description: as §1
# [2] = read-out: Affinity range (Kd class), F17aG
# [3] = good fit for at least three related experiments, read-out: dissociation constant Kd, F17aG
# F17bG lectin domain, sequence (Q47200 23-199): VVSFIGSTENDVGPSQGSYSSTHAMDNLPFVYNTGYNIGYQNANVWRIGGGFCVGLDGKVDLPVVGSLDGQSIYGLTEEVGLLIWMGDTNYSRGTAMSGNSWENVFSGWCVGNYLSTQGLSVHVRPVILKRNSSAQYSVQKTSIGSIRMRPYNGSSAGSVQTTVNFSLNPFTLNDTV
# F17dG lectin domain, sequence (Q47199 23-199): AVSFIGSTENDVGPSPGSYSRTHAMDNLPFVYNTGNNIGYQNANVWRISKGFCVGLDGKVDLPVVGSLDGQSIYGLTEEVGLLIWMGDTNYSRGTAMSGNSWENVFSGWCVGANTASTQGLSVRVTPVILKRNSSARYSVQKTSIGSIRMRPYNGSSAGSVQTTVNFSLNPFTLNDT
# F17aG lectin domain, sequence (Q99003 23-199): as the sequence (Q47199 23-199) above, with P16L, N33D, G35R, N37K, R47H, N90K counted along it
# T1 sequence (Q99003 23-199): as the sequence (Q47199 23-199) above, with P16L, N33D, G35R, N37K, R47H, N90K counted along it
Compound,"Kd [1, 2] [mM]","Relative Fluorescence Units (RFU), averaged over six replicates, F17eG (F17eG lectin domain)","Relative Fluorescence Units (RFU), averaged over six replicates, F17dG (F17dG lectin domain)","Relative Fluorescence Units (RFU), averaged over six replicates, F17bG (F17bG lectin domain)","Relative Fluorescence Units (RFU), averaged over six replicates, F17aG (F17aG lectin domain)","Relative Fluorescence Units (RFU), averaged over six replicates, F17fG (F17fG lectin domain)","Kd [1, 3] [mM]"
"CC(=O)N[C@H]1[C@H](O[C@H]2[C@@H](O)[C@@H](CO)O[C@@H](O[C@H]3[C@H](O)[C@@H](O)C(O)O[C@@H]3CO)[C@@H]2O)O[C@H](CO)[C@@H](O)[C@@H]1O[C@@H]1O[C@H](CO)[C@H](O)[C@H](O)[C@H]1O[C@@H]1O[C@@H](C)[C@@H](O)[C@@H](O)[C@@H]1O (stereo partly shown) [Fucα1,2Galβ1,3GlcNAcβ1,3Galβ1,4Glc]",> 100,–,–,–,–,–,–
"COc1ccc(O[C@@H]2O[C@H](CO)[C@@H](O[C@@H]3O[C@H](CO)[C@H](O)[C@H](O)[C@H]3NC(C)=O)[C@H](O)[C@H]2NC(C)=O)cc1 [GalNAcβ1,4GlcNAcβ1-methoxy phenyl]",1 to 10,–,–,–,–,–,–
"CC(=O)N[C@H]1[C@H](OC[C@H]2O[C@H](OCCCN)[C@H](NC(C)=O)[C@@H](O[C@@H]3O[C@H](CO)[C@H](O)[C@H](O)[C@H]3O)[C@H]2O)O[C@H](CO)[C@@H](O)[C@@H]1O [Galβ1,3(GlcNAcβ1,6)GalNAcα-Sp8]",–,"50,893 (5,540) RFU","3,850 (364) RFU","6,215 (1,046) RFU","10,256 (1,410) RFU","3,195 (811) RFU",–
"CC(=O)N[C@H]1C(O)O[C@H](CO)[C@H](O)[C@@H]1O[C@@H]1O[C@H](CO)[C@H](O)[C@H](O)[C@H]1O (stereo partly shown) [Galβ1,3GalNAc]",10 to 100,–,–,–,–,–,–
"CC(=O)N[C@H]1[C@H](O[C@H]2[C@@H](O)[C@@H](CO)O[C@@H](O[C@H]3[C@H](O)[C@@H](O)C(O)O[C@@H]3CO)[C@@H]2O)O[C@H](CO)[C@@H](O[C@@H]2O[C@H](CO)[C@H](O)[C@H](O)[C@H]2O)[C@@H]1O (stereo partly drawn) [Galβ1,4GlcNAcβ 1,3Gal β1,4Glc]",10 to 100,–,–,–,–,–,–
"CC(=O)N[C@H]1[C@H](OCCCN)O[C@H](CO)[C@@H](O[C@@H]2O[C@H](CO[C@@H]3O[C@H](CO)[C@@H](O)[C@H](O)[C@H]3NC(C)=O)[C@H](O)[C@H](O[C@@H]3O[C@H](CO)[C@@H](O)[C@H](O)[C@H]3NC(C)=O)[C@H]2O)[C@@H]1O [GlcNAcβ1,3(GlcNAcβ1,6)Galβ1,4GlcNAcβ-Sp8]",–,"41,907 (4,694) RFU","17,195 (3,442) RFU","21,630 (2,490) RFU","44,391 (3,949) RFU","37,083 (5,973) RFU",–
"CC(=O)N[C@H]1[C@H](O[C@H]2[C@@H](O)[C@@H](CO)O[C@H](OCCCN)[C@@H]2NC(C)=O)O[C@H](CO)[C@@H](O)[C@@H]1O [GlcNAcβ1,3GalNAcα-Sp8]",–,"33,330 (7,321) RFU","6,635 (2,735) RFU","15,182 (2,925) RFU","25,971 (3,174) RFU","10,999 (2,929) RFU",–
"CC(=O)N[C@H]1[C@H](O[C@H]2[C@@H](O)[C@@H](CO)O[C@@H](OCCCN)[C@@H]2O)O[C@H](CO)[C@@H](O)[C@@H]1O [GlcNAcβ1,3Galβ-Sp8]",–,"38,836 (5,631) RFU","16,277 (9,959) RFU","16,310 (1,907) RFU","32,288 (4,175) RFU","27,648 (1,137) RFU",–
"CC(=O)N[C@H]1[C@H](OCCCN)O[C@H](CO)[C@@H](O[C@@H]2O[C@H](CO)[C@@H](O[C@@H]3O[C@H](CO)[C@@H](O)[C@H](O)[C@H]3NC(C)=O)[C@H](O)[C@H]2NC(C)=O)[C@@H]1O [GlcNAcβ1,4GlcNAcβ1,4GlcNAcβ-Sp8]",–,"5,689 (1,085) RFU","1,690 (251) RFU","2,860 (706) RFU",848 (88) RFU,"2,418 (613) RFU",–
CC(=O)N[C@H]1[C@H](OCCN)O[C@H](CO)[C@@H](O)[C@@H]1O [GlcNAcβ-Sp0],–,"34,825 (6,475) RFU","3,377 (643) RFU","14,972 (2,705) RFU","15,621 (2,697) RFU","5,354 (1,572) RFU",–
CC(=O)N[C@H]1[C@H](OCCCN)O[C@H](CO)[C@@H](O)[C@@H]1O [GlcNAcβ-Sp8],–,"31,863 (4,615) RFU","2,514 (365) RFU","12,289 (1,168) RFU","22,909 (3,087) RFU","10,738 (2,670) RFU",–
CO[C@H]1O[C@H](CO)[C@@H](O)[C@H](O)[C@H]1NC(C)=O [Me α N-acetylglucosamine],–,–,–,–,–,–,9.8
CO[C@@H]1O[C@H](CO)[C@@H](O)[C@H](O)[C@H]1NC(C)=O [Me β N-acetylglucosamine],1 to 10,–,–,–,–,–,1.2
"Gal β1,4 GlcNAc",1 to 10,–,–,–,–,–,–
"GalNAcβ1,3GalNAcα-Sp8",–,"50,791 (5,749) RFU","11,034 (1204) RFU","17,169 (4,228) RFU",–,"10,691 (3,009) RFU",–
"GlcNAcβ1,3(GlcNAcβ1,6)GalNAcα-Sp8",–,"46,840 (6,520) RFU","23,756 (2,105) RFU","12,183 (1,524) RFU","35,858 (4,079) RFU",–,–
"GlcNAcβ1,6(Galβ1,3)GalNAcα-Sp8",–,–,"3,492 (658) RFU","6,017 (587) RFU","12,541 (1,115) RFU","3,206(997) RFU",–
